Measurements reported in patent US9179694B2, “Method and composition for enhancing milk production and milk component concentrations” (PURINA ANIMAL NUTRITION LLC, priority 2003, dated 2015).
Marks after values point to notes of the source that are not given here.

Assay: 4% fat-corrected milk production in sorbitol feeding trials
Assay type: in vivo, Holstein cows
Source text: To convert a particular quantity (weight) of a milk sample to the quantity (weight) of Fat-Corrected Milk, based on a correction to a concentration of four weight percent fat, based on the total weight off the Fat-Corrected Milk, the following equation is employed: 4 wt % FCM=Original Milk Weight×(0.4+(0.15×% TFOM)) where: • the term 4 wt % FCM means the calculated weight of Fat-Corrected Milk, based on a correction to a concentration of four weight percent fat, based on the total weight of the Fat-Corrected Milk, • the term Original Milk Weight means the weight of the original milk sample that is being corrected to a four weight percent fat basis, and • % TFOM is the weight % total fat in the original milk sample, based on the total weight of the original milk sample. Each cow of each of the six different trials (Control Trial #1, Control Trial #2, Pre-Partum Trial #1, Pre-Partum Trial #2, Pre/Post Trial #1, and Pre/Post Trial #2) was milked three times daily and the weight of produced milk by each cow was recorded at each milking. The milk from each cow was sampled once per week (⅓ of the sample volume from each of the three milkings occurring on the weekly milk sampling day) and was analyzed for true protein, total fat, lactose, and total solids, as detailed in the property determination and characterization techniques presented above. Additionally, samples of blood were periodically obtained from each cow during the four trials (Control Trial 2, Pre-Partum Trial #2, Pre/Post Trial #1, and Pre/Post Trial #2) encompassed in Example Two and were analyzed for non-esterified fatty acid (NEFA) content as detailed in the property determination and characterization techniques presented above. No NEFA analysis was conducted on the cows employed in Control Trial #1 or Pre-Partum Trial #1 that are the subject of Example One. Example One includes Control Trial #1 and Pre-Partum Trial #1. Both primiparious cows and multiparious cows were included in Control Trial #1 and Pre-Partum Trial #1. Five primiparious cows and fifteen multiparious cows were included in Control Trial #1; likewise, five primiparious cows and fifteen multiparious cows were included in Pre-Partum Trial #1. All cows included in Control Trial #1 and Pre-Partum Trial #1 were Holsteins. Example Two includes Control Trial #2, Pre-Partum Trial #2, Pre/Post Trial #1, and Pre/Post Trial #2. Only multiparious, Holstein cows were included in Control Trial #2, Pre-Partum Trial #1, Pre/Post Trial #1, and Pre/Post Trial #2. Eighteen multiparious cows were included in both Control Trial #2 and Pre-Partum Trial #2, while sixteen multiparious cows were included in Pre/Post Trial #1 and seventeen multiparious cows were included in Pre/Post Trial #2.

OC[C@@H](O)[C@@H](O)[C@H](O)[C@@H](O)CO [sorbitol]
Milk Production (4.0% fat basis) (Pre-Partum Trial #1 (75/0/0 g/day in wk −3..−1/+1..+4/+5..+8), multiparious cows, weeks +1 through +8): 98.6 lbs/day | Milk Production (4.0% fat basis) (Pre-Partum Trial #1 (75/0/0 g/day in wk −3..−1/+1..+4/+5..+8), primiparious cows, weeks +1 through +8): 79.3 lbs/day | 4% fat-corrected milk production increase (Pre-Partum Trial #1 (75 g/day wk −3..−1 only) versus Control Trial #1, multiparious cows, weeks +1 through +8): 12.4% | increase in production of 4% fat-corrected milk (Pre-Partum Trial #1 (75 g/day wk −3..−1 only) versus Control Trial #1, primiparious cows, weeks +1 through +8): 7.6% | Milk Production (4.0% fat basis) (Pre-Partum Trial #2 (75/0/100 g/day in wk −3..−1/+1..+4/+5..+8), multiparious cows, week +1): 71.1^a lbs/day | Milk Production (4.0% fat basis) (Pre-Partum Trial #2 (75/0/100 g/day in wk −3..−1/+1..+4/+5..+8), multiparious cows, week +2): 100 lbs/day | Milk Production (4.0% fat basis) (Pre-Partum Trial #2 (75/0/100 g/day in wk −3..−1/+1..+4/+5..+8), multiparious cows, week +3): 104 lbs/day | Milk Production (4.0% fat basis) (Pre-Partum Trial #2 (75/0/100 g/day in wk −3..−1/+1..+4/+5..+8), multiparious cows, week +4): 101 lbs/day | Milk Production (4.0% fat basis) (Pre-Partum Trial #2 (75/0/100 g/day in wk −3..−1/+1..+4/+5..+8), multiparious cows, week +5): 104^ab lbs/day | Milk Production (4.0% fat basis) (Pre-Partum Trial #2 (75/0/100 g/day in wk −3..−1/+1..+4/+5..+8), multiparious cows, week +6): 102 lbs/day | Milk Production (4.0% fat basis) (Pre-Partum Trial #2 (75/0/100 g/day in wk −3..−1/+1..+4/+5..+8), multiparious cows, week +7): 102 lbs/day | Milk Production (4.0% fat basis) (Pre-Partum Trial #2 (75/0/100 g/day in wk −3..−1/+1..+4/+5..+8), multiparious cows, week +8): 99.5^ab lbs/day | Milk Production (4.0% fat basis) (Pre-Partum Trial #2 (75/0/100 g/day in wk −3..−1/+1..+4/+5..+8), multiparious cows, weeks +1 through +4): 94.4 lbs/day | Milk Production (4.0% fat basis) (Pre-Partum Trial #2 (75/0/100 g/day in wk −3..−1/+1..+4/+5..+8), multiparious cows, weeks +1 through +8): 98 lbs/day | Milk Production (4.0% fat basis) (Pre-Partum Trial #2 (75/0/100 g/day in wk −3..−1/+1..+4/+5..+8), multiparious cows, weeks +5 through +8): 102 lbs/day | Milk Production (4.0% fat basis) (Pre/Post Trial #1 (150/125/100 g/day in wk −3..−1/+1..+4/+5..+8), multiparious cows, week +1): 82.1^ab lbs/day | Milk Production (4.0% fat basis) (Pre/Post Trial #1 (150/125/100 g/day in wk −3..−1/+1..+4/+5..+8), multiparious cows, week +1, two-trial comparison with Control Trial #2 (Table 23)): 82.4 lbs/day | Milk Production (4.0% fat basis) (Pre/Post Trial #1 (150/125/100 g/day in wk −3..−1/+1..+4/+5..+8), multiparious cows, week +2): 100 lbs/day | Milk Production (4.0% fat basis) (Pre/Post Trial #1 (150/125/100 g/day in wk −3..−1/+1..+4/+5..+8), multiparious cows, week +2, two-trial comparison with Control Trial #2 (Table 23)): 99.7 lbs/day | Milk Production (4.0% fat basis) (Pre/Post Trial #1 (150/125/100 g/day in wk −3..−1/+1..+4/+5..+8), multiparious cows, week +3): 107 lbs/day | Milk Production (4.0% fat basis) (Pre/Post Trial #1 (150/125/100 g/day in wk −3..−1/+1..+4/+5..+8), multiparious cows, week +3, two-trial comparison with Control Trial #2 (Table 23)): 107 lbs/day | Milk Production (4.0% fat basis) (Pre/Post Trial #1 (150/125/100 g/day in wk −3..−1/+1..+4/+5..+8), multiparious cows, week +4): 109 lbs/day | Milk Production (4.0% fat basis) (Pre/Post Trial #1 (150/125/100 g/day in wk −3..−1/+1..+4/+5..+8), multiparious cows, week +4, two-trial comparison with Control Trial #2 (Table 23)): 109 lbs/day | Milk Production (4.0% fat basis) (Pre/Post Trial #1 (150/125/100 g/day in wk −3..−1/+1..+4/+5..+8), multiparious cows, week +5): 108^ab lbs/day | Milk Production (4.0% fat basis) (Pre/Post Trial #1 (150/125/100 g/day in wk −3..−1/+1..+4/+5..+8), multiparious cows, week +5, two-trial comparison with Control Trial #2 (Table 23)): 108 lbs/day | Milk Production (4.0% fat basis) (Pre/Post Trial #1 (150/125/100 g/day in wk −3..−1/+1..+4/+5..+8), multiparious cows, week +6): 109 lbs/day | Milk Production (4.0% fat basis) (Pre/Post Trial #1 (150/125/100 g/day in wk −3..−1/+1..+4/+5..+8), multiparious cows, week +6, two-trial comparison with Control Trial #2 (Table 23)): 109 lbs/day | Milk Production (4.0% fat basis) (Pre/Post Trial #1 (150/125/100 g/day in wk −3..−1/+1..+4/+5..+8), multiparious cows, week +7): 103 lbs/day | Milk Production (4.0% fat basis) (Pre/Post Trial #1 (150/125/100 g/day in wk −3..−1/+1..+4/+5..+8), multiparious cows, week +7, two-trial comparison with Control Trial #2 (Table 23)): 103 lbs/day | Milk Production (4.0% fat basis) (Pre/Post Trial #1 (150/125/100 g/day in wk −3..−1/+1..+4/+5..+8), multiparious cows, week +8): 108.7^b lbs/day | Milk Production (4.0% fat basis) (Pre/Post Trial #1 (150/125/100 g/day in wk −3..−1/+1..+4/+5..+8), multiparious cows, week +8, two-trial comparison with Control Trial #2 (Table 23)): 109 lbs/day | Milk Production (4.0% fat basis) (Pre/Post Trial #1 (150/125/100 g/day in wk −3..−1/+1..+4/+5..+8), multiparious cows, weeks +1 through +4): 99.5 lbs/day | Milk Production (4.0% fat basis) (Pre/Post Trial #1 (150/125/100 g/day in wk −3..−1/+1..+4/+5..+8), multiparious cows, weeks +1 through +4, two-trial comparison with Control Trial #2 (Table 23)): 99.7 lbs/day | Milk Production (4.0% fat basis) (Pre/Post Trial #1 (150/125/100 g/day in wk −3..−1/+1..+4/+5..+8), multiparious cows, weeks +1 through +8): 103 lbs/day | Milk Production (4.0% fat basis) (Pre/Post Trial #1 (150/125/100 g/day in wk −3..−1/+1..+4/+5..+8), multiparious cows, weeks +1 through +8, two-trial comparison with Control Trial #2 (Table 23)): 103 lbs/day | Milk Production (4.0% fat basis) (Pre/Post Trial #1 (150/125/100 g/day in wk −3..−1/+1..+4/+5..+8), multiparious cows, weeks +5 through +8): 107 lbs/day | Milk Production (4.0% fat basis) (Pre/Post Trial #1 (150/125/100 g/day in wk −3..−1/+1..+4/+5..+8), multiparious cows, weeks +5 through +8, two-trial comparison with Control Trial #2 (Table 23)): 107 lbs/day | greater production of 4% fat-corrected milk (Pre/Post Trial #1 (150/125/100 g/day) versus Control Trial #2, multiparious cows, week +8): 13.2% | increase in production of 4% fat-corrected milk (Pre/Post Trial #1 (150/125/100 g/day) versus Control Trial #2, multiparious cows, weeks +5 through +8 (Table 23)): 8.1% | greater rate of 4% fat-corrected milk production (Pre/Post Trial #1 (150/125/100 g/day) versus Pre/Post Trial #2 (75/75/100 g/day), multiparious cows, week +8): 15.1% | Milk Production (4.0% fat basis) (Pre/Post Trial #2 (75/75/100 g/day in wk −3..−1/+1..+4/+5..+8), multiparious cows, week +1): 88.6^b lbs/day | Milk Production (4.0% fat basis) (Pre/Post Trial #2 (75/75/100 g/day in wk −3..−1/+1..+4/+5..+8), multiparious cows, week +2): 103 lbs/day | Milk Production (4.0% fat basis) (Pre/Post Trial #2 (75/75/100 g/day in wk −3..−1/+1..+4/+5..+8), multiparious cows, week +3): 106 lbs/day | Milk Production (4.0% fat basis) (Pre/Post Trial #2 (75/75/100 g/day in wk −3..−1/+1..+4/+5..+8), multiparious cows, week +4): 105 lbs/day | Milk Production (4.0% fat basis) (Pre/Post Trial #2 (75/75/100 g/day in wk −3..−1/+1..+4/+5..+8), multiparious cows, week +5): 111^b lbs/day | Milk Production (4.0% fat basis) (Pre/Post Trial #2 (75/75/100 g/day in wk −3..−1/+1..+4/+5..+8), multiparious cows, week +6): 104 lbs/day | Milk Production (4.0% fat basis) (Pre/Post Trial #2 (75/75/100 g/day in wk −3..−1/+1..+4/+5..+8), multiparious cows, week +7): 101 lbs/day | Milk Production (4.0% fat basis) (Pre/Post Trial #2 (75/75/100 g/day in wk −3..−1/+1..+4/+5..+8), multiparious cows, week +8): 94.4^a lbs/day | Milk Production (4.0% fat basis) (Pre/Post Trial #2 (75/75/100 g/day in wk −3..−1/+1..+4/+5..+8), multiparious cows, weeks +1 through +4): 100.6 lbs/day | Milk Production (4.0% fat basis) (Pre/Post Trial #2 (75/75/100 g/day in wk −3..−1/+1..+4/+5..+8), multiparious cows, weeks +1 through +8): 101 lbs/day | Milk Production (4.0% fat basis) (Pre/Post Trial #2 (75/75/100 g/day in wk −3..−1/+1..+4/+5..+8), multiparious cows, weeks +5 through +8): 102 lbs/day | greater production of 4% fat-corrected milk (Pre/Post Trial #2 (75/75/100 g/day) versus Control Trial #2, multiparious cows, week +5): 12.1% | greater rate of 4% fat-corrected milk production (Pre/Post Trial #2 (75/75/100 g/day) versus Pre-Partum Trial #2 (75/0/100 g/day), multiparious cows, week +1): 24.6%
